Here are results for 1 molecule from patent US9518977B2, “Microfluidic assay apparatus and methods of use” (University of Washington through its Center for …, priority 2012, dated 2016).

The assay relates to GFP-labelled glioma cells in human GBM mouse xenograft slice. The assay is described as follows: Drug testing on human GBM xenograft slices in microfluidic apparatus. The settings on record: 1 mM TMZ in culture medium, 48 hours selective exposure, 400 μm-thick slice, epifluorescence and confocal imaging. It counts as cell-based. The source says: Two hundred thousand (200,000) viable glioma cells labelled by lentiviral GFP expression were orthotopically injected in the brain of an immunodeficient mouse following proper protocols. After approximately four weeks of tumor growth, the mouse was sacrificed and the mouse brain was then transported in ice cold culture medium prior to slicing. A vibratome tissue slicer was used to produce 400 μm-thick slices from a GBM xenograft mouse brain (the tissue was submerged in oxygenated ACSF during the slicing process). Then the slices were quickly transferred onto the PTFE membrane well inserts with pre-warmed culture medium and placed in an incubator. These slices were cultured for at least 24 hours (recovery) before being used for drug testing.
To proceed with drug testing, the GBM slice was transferred from the culture membrane well insert to the microfluidic apparatus by cutting the PTFE membrane out from the well insert and then placing it onto the plurality of open microchannels of the apparatus. […] Then the wells corresponding to the determined drug delivery channels were replaced with drug solution (1 mM of TMZ in culture medium; TMZ was chosen due to its clinical relevance to GBM), and then the apparatus was connected to a syringe pump with the total flow rate of 300 μL per hour in an incubator to initiate the drug delivery. […]

Each structure is given as a SMILES string. Entries after “also recorded” stand apart in the source; their conditions may differ.

For `Cn1nnc2c(C(N)=O)ncn2c1=O` [TMZ], the “cell death (loss of GFP-labelled glioma cells) at drug exposure regions” value was “selectivity of cell death in the TMZ region; also recorded: loss of GFP-labelled glioma cells”.
